The source of these data is ChEMBL document CHEMBL4673209, “Discovery of a novel potent GPR40 full agonist” (Bioorg Med Chem Lett, 2018).

Calls of active or inactive are those of the source. The rule behind the calls is not given here.

A short description of series [1]: Protein binding in human plasma. It counts as ADME, cell-free. The conditions noted are these: read-out: PPB (converted).
For series [2], the target named is T1, Cytochrome P450 2C8 (Homo sapiens, UniProt P10632).
T1 sequence (P10632 whole entry): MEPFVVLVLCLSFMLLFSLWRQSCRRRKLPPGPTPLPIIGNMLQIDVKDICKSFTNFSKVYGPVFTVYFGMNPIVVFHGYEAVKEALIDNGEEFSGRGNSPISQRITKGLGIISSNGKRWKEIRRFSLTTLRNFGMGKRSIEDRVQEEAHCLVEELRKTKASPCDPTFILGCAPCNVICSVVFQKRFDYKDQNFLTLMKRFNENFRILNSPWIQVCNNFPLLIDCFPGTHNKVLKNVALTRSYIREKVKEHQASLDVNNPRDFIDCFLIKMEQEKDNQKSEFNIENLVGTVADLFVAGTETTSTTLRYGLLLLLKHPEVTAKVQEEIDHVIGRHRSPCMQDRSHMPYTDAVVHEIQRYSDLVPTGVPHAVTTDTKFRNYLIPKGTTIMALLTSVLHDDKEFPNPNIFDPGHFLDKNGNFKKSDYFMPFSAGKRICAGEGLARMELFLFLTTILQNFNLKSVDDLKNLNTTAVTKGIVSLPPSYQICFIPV
In words: Inhibition of recombinant CYP2C8 (unknown origin). The series is classed as ADME.

A short description of series [3]: Clearance in rat. The series is classed as ADME. The conditions noted are these: in vivo.
For series [4], the target named is Free fatty acid receptor 1 (Mus musculus, UniProt Q76JU9). Kind of series: Agonist activity at mouse GPR40 assessed as increase in intracellular calcium level. The series is classed as functional, cell-based. On the technique in general: A change in cytosolic calcium serves as a functional read-out for many receptors and channels.
Chain of Free fatty acid receptor 1 (Mus musculus, UniProt Q76JU9) (Q76JU9 whole entry): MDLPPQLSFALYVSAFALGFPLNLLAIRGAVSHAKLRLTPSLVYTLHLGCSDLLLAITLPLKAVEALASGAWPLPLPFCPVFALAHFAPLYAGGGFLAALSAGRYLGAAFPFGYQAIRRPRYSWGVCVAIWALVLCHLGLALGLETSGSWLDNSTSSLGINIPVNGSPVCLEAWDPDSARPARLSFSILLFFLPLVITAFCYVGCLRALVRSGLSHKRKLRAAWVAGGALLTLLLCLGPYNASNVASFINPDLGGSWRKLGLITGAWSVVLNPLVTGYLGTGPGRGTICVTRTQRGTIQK
Series [5] addresses Free fatty acid receptor 1 (Homo sapiens, UniProt O14842). In words: Agonist activity at human GPR40 receptor expressed in CHOK1 cells assessed as induction of IP1 accumulation at 10 uM relative to AM1638. It counts as functional, cell-based. The conditions noted are these: CHO-K1, filed as agonist.
A short description of series [6]: Apparent permeability from basolateral to apical side in dog MDCK-MDR1 cells. The series is classed as ADME, cell-based, Canis lupus familiaris.
Series [7] is described as follows: Apparent permeability across apical to basolateral side in human Caco2 cells. The series is classed as ADME, cell-based. The conditions noted are these: Caco-2. Background: Caco-2 monolayers are a common model of the intestinal barrier.
For series [8], the system named is Rattus norvegicus. Kind of series: Anti-glycemic activity in fasted Sprague-Dawley ZDF rat assessed as increase in insulin secretion by measuring insulin level in plasma at 10 mg/kg administered 30 mins prior to glucose challenge measured after 140 mins by OGTT. The series is classed as functional. The conditions noted are these: time 170 min, 2.833 h.
Series [9] addresses T2, Free fatty acid receptor 3 (Homo sapiens) (UniProt O14843).
T2 sequence (whole entry): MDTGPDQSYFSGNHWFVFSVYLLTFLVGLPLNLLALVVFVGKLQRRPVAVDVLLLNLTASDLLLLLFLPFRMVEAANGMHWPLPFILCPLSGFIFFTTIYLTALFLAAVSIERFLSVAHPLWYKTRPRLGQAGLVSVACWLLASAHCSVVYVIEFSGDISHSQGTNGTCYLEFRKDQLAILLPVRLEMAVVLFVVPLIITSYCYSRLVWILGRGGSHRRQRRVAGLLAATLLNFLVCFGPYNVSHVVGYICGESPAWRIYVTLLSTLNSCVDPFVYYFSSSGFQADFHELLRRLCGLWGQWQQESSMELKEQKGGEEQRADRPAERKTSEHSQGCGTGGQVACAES
In words: Agonist activity at GPR41 (unknown origin).

Series [10] is described as follows: Half life in iv dosed cynomolgus monkey. The series is classed as ADME, organism-based, Macaca fascicularis. Particulars: in vivo.
A short description of series [11]: Cmax in cynomolgus monkey. It counts as ADME, Macaca fascicularis. Particulars: in vivo.
The target in series [12] is Free fatty acid receptor 1 (Rattus norvegicus) (UniProt Q8K3T4). Kind of series: Agonist activity at rat GPR40 receptor expressed in CHOK1 cells assessed as induction of IP1 accumulation at 10 uM. Particulars: CHO-K1, filed as agonist. It counts as functional, cell-based.
Chain of Free fatty acid receptor 1 (Rattus norvegicus) (Q8K3T4 whole entry): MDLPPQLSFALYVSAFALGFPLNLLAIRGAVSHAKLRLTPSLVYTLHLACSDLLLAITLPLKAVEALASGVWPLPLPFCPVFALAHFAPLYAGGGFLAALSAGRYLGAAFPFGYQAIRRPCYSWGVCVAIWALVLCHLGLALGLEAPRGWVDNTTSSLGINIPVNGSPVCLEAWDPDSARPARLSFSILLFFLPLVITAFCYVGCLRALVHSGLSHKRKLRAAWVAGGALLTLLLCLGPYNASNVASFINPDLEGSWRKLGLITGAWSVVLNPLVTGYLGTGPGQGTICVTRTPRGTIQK
Series [13] can be described thus: Volume of distribution at steady state in cynomolgus monkey. Particulars: in vivo, read-out: Vdss. The series is classed as ADME, Macaca fascicularis.
For series [14], the system named is Rattus norvegicus. In words: Anti-glycemic activity in fasted Sprague-Dawley ZDF rat assessed as increase in insulin secretion by measuring insulin level in plasma administered 30 mins prior to glucose challenge measured after 140 mins by OGTT. The series is classed as functional, organism-based. The conditions noted are these: dose 1-10 mg/kg, time 170.0 min.

The target of series [15] is T3, Peroxisome proliferator-activated receptor gamma (Homo sapiens) (UniProt P37231).
T3 sequence (whole entry): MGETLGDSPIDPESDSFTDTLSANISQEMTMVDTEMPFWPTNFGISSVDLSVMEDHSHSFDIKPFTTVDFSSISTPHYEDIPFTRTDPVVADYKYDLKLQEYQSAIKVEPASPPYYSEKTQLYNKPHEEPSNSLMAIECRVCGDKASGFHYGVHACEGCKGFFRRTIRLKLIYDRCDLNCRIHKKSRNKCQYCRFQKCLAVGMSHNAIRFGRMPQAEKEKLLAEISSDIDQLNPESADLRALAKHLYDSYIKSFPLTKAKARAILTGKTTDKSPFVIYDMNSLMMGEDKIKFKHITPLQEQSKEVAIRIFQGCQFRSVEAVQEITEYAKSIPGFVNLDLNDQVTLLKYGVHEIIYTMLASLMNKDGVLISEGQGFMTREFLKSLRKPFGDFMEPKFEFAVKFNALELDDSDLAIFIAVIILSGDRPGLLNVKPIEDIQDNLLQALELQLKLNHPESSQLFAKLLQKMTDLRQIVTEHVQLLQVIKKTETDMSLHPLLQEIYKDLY
Kind of series: Agonist activity at PPARgamma (unknown origin). The series is classed as cell-based. The conditions noted are these: HEK293.

Series [16] in a line: Volume of distribution at steady state in dog. Particulars: in vivo, read-out: Vdss. It counts as ADME, Canis lupus familiaris.
Series [17] has as its target Free fatty acid receptor 1 (Rattus norvegicus) (UniProt Q8K3T4). Kind of series: Agonist activity at GPR40 in rat INS1 (832/13) cells assessed as induction of glucose-stimulated insulin secretion in presence of 10 mM glucose. Particulars: INS-1 832/13, filed as agonist. It counts as cell-based.
Series [18] relates to Rattus norvegicus. Kind of series: Anti-glycemic activity in fasted Sprague-Dawley ZDF rat assessed as reduction in post-prandial hyperglycemia by measuring AUC(0 to 2 hrs) for blood glucose at 3 mg/kg administered for 1 day and measured on day 1 by OGTT. The series is classed as functional.
The target of series [19] is T4, Free fatty acid receptor 4 (Homo sapiens) (UniProt Q5NUL3).
T4 sequence (whole entry): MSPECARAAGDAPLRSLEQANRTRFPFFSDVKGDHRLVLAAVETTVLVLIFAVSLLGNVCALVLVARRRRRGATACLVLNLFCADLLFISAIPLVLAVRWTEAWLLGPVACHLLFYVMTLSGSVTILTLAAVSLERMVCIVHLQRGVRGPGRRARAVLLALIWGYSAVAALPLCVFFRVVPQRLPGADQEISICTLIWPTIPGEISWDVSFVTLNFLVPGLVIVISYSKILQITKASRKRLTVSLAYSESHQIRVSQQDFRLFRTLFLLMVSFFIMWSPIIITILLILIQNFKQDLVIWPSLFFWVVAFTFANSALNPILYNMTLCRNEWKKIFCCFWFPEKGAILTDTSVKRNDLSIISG
In words: Agonist activity at GPR120 (unknown origin).

Series [20] relates to Rattus norvegicus. In words: Anti-glycemic activity in fasted Sprague-Dawley ZDF rat assessed as reduction in post-prandial hyperglycemia by measuring AUC(0 to 2 hrs) for blood glucose at 10 mg/kg administered for 1 day and measured on day 1 by OGTT. The series is classed as functional.
Series [21] can be described thus: Half life in iv dosed dog. It counts as ADME, organism-based, Canis lupus familiaris. The conditions noted are these: in vivo.
A short description of series [22]: Protein binding in cynomolgus monkey plasma. It counts as ADME, cell-free, Macaca fascicularis. The conditions noted are these: read-out: PPB (converted).
The target in series [23] is Free fatty acid receptor 1 (Rattus norvegicus) (UniProt Q8K3T4). Kind of series: Agonist activity at GPR40 receptor in rat INS1(832/13) cells assessed as induction of IP1 accumulation at 10 uM relative to TAK875. It counts as functional, cell-based. The conditions noted are these: INS-1 832/13, filed as agonist.
Series [24] can be described thus: Half life in iv dosed rat. The series is classed as ADME, organism-based. The conditions noted are these: in vivo.

Chain of Free fatty acid receptor 1 (Homo sapiens, UniProt O14842) (O14842 whole entry): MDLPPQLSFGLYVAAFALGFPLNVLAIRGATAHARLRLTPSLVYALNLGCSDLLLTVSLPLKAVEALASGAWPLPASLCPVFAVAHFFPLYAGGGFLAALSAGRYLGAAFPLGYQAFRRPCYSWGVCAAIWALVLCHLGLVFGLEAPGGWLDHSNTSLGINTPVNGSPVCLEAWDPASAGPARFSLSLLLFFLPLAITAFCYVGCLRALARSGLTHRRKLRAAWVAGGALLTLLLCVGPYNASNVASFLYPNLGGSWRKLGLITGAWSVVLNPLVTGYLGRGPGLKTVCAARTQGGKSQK

What is called IC50 is the midpoint of a concentration-inhibition curve. Broadly, the clearance is a measure of how efficiently the substance is removed, as volume per time. What is called EC50 is the midpoint of the concentration-response curve. One may read the Papp B→A as the apparent permeability from the basolateral to the apical side of a cell layer. A word on the Papp A→B: it is the apparent permeability from the apical to the basolateral side of a cell layer. As usually defined, the half-life is the time in which the quantity being followed falls by half. One may read the Cmax as the highest concentration seen after dosing. `COc1cc(-c2ncc(COc3cccc([C@@H](CC(=O)O)C4CC4)c3)nc2CC(C)C)c(F)cn1`: the fraction unbound in [1] is 0.0012; in [22] it was 0.0009. Moreover, the half-inhibitory concentration (IC50) in series [2] came out at 9.8 µM. Moreover, the clearance in [3] was found to be 2.37 mL/min/kg. The EC50 in series [4] came out at 0.038 µM. Besides, the Activity in [5] was 121%; in series [8] it was 16925 ng/mL; in series [12] it was 572 nM; in series [14] it was “Dose-dependent effect”; in series [18] it was 15896 ng/mL.hr; in series [20], 37373 ng/mL.hr. Moreover, the Activity in series [23] is 208%. The Papp B→A in series [6] was determined as 82 ×10⁻⁶ cm/s. Moreover, the Papp A→B in [7] is 40 ×10⁻⁶ cm/s. The outcome in series [9], in series [15] and in [19] was inactive. In addition, the half-life in [10] is 11.2 h; in [21], 4.82 h; in series [24], 2.71 h. Further, the highest concentration (Cmax) in series [11] is 8570 ng/mL. Besides, the values for the Vd in series [13] and in series [16] were 1.06 L/kg and 1.62 L/kg, respectively. Further, the outcome in [17] was Active.
